According to patent US20230015823A1, “METHODS OF ADMINISTERING VOXELOTOR” (Global Blood Therapeutics, Inc., priority 2019, published 2023):
Like-named read-outs stand apart in the source and are kept apart here.

What was measured:
[1] = Effect of food on voxelotor PK; assay type: in vivo
[2] = target: P-gp (Homo sapiens, UniProt P08183); assay: Effect of voxelotor on P-gp: concomitant digoxin; assay type: in vivo; details: concomitant use
[3] = system: QT interval; assay: Cardiac electrophysiology; assay type: in vivo; details: plasma concentrations approximately 2-fold above therapeutic concentrations
[4] = Phase 1 study of a single oral dose of voxelotor in subjects with hepatic impairment: whole blood and plasma PK; assay type: in vivo, human; details: human; for half-life: read-out: t1/2, mean (converted); for Vd/F: read-out: Vz/F, GM (converted); for Tmax: read-out: tmax, median (converted)
Experimental: A Phase 1, open-label study was performed to characterize pharmacokinetics (PK) and safety of a single oral dose of voxelotor in subjects with hepatic impairment. The study was to assess the effects of mild, moderate, or severe hepatic impairment on the PK of a single oral dose of voxelotor, to evaluate the safety and tolerability of a single oral dose of voxelotor in subjects with mild, moderate, or severe hepatic impairment, as well as to establish potential dose adjustment guidance based upon the degree of hepatic insufficiency. […] This study was designed to assess the effects of mild, moderate, or severe hepatic impairment on the PK of a single oral dose of voxelotor. Routine safety assessments (AE monitoring, vital signs, physical examinations, clinical laboratory tests, and ECGs) were performed. Eligible subjects received a single oral dose of voxelotor 1500 mg (5×300-mg capsules) on Day 1 (for normal hepatic function, mild and moderate hepatic impairment). […] No food was allowed for at least 4 hours postdose. No water or any type of liquid was allowed for 1 hour before dosing through 1-hour postdose with the exception of water consumed for dosing. Adverse events and concomitant medication use were monitored throughout the study. Safety assessments, including physical examinations, vital signs assessments, 12-lead ECGs, and clinical laboratory tests, were performed. Whole blood and plasma concentrations of voxelotor were determined using validated assays. […] Louis, Mo.) and actual sampling times. The following PK parameters were determined. To assess the effect of hepatic impairment on the PK of voxelotor, a linear mixed-effect model was fitted to the log-transformed values of whole blood and plasma Cmax, AUCt, and AUCinf. The model included hepatic impairment group as a fixed effect and age and weight as covariates. Point estimates and 90% CIs for hepatic function group differences (mild, moderate, and severe hepatically-impaired subjects [test] versus the normal hepatic function subjects [control]) on the log scale were exponentiated to obtain estimates for GM ratios on the original scale. Voxelotor whole blood and plasma concentrations were measured using a validated liquid chromatography-mass spectrometry method. The lower limit of assay quantitation for voxelotor was 10.0 ng/mL for whole blood and 5.00 ng/mL in plasma.

[5] = plasma, po, 600 mg, plasma, severe hepatic impairment, 600 mg single oral dose
[6] = plasma, po, 1500 mg, plasma, mild hepatic impairment, 1500 mg single oral dose
[7] = plasma, po, 1500 mg, plasma, moderate hepatic impairment, 1500 mg single oral dose
[8] = plasma, po, 1500 mg, plasma, normal hepatic function, 1500 mg single oral dose

Chain of P-gp (P08183 whole entry): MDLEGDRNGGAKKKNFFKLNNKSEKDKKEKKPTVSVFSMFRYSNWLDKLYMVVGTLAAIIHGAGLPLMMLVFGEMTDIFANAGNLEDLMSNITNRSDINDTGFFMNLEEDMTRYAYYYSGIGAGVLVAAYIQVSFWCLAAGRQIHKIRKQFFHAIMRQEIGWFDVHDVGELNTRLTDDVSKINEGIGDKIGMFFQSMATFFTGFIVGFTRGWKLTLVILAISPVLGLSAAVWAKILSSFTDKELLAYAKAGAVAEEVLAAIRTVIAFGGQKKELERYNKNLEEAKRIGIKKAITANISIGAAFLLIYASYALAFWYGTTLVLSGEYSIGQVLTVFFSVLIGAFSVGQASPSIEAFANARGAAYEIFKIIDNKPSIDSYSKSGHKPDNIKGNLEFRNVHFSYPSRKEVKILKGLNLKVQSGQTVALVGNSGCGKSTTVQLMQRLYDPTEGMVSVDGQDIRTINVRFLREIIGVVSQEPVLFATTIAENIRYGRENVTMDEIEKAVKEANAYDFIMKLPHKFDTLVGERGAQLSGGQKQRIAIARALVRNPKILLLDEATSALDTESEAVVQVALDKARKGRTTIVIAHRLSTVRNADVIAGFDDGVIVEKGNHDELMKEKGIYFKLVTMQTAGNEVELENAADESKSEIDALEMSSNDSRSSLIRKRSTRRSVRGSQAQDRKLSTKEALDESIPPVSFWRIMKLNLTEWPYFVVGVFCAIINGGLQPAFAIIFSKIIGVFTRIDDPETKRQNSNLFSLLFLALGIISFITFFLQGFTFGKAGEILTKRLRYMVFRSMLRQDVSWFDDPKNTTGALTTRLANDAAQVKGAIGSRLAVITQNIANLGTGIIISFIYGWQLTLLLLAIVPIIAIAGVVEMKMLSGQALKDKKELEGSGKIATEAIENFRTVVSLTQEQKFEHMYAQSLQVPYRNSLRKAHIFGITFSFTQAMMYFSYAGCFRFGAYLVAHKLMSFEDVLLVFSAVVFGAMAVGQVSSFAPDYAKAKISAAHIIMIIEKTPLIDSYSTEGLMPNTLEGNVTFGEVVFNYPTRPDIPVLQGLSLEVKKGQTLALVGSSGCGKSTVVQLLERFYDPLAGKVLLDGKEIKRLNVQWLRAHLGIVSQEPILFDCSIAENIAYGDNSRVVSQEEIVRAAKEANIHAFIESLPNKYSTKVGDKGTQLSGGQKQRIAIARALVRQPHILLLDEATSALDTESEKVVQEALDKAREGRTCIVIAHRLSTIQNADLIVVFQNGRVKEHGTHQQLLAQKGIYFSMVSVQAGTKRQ

In the case of CC(C)n1nccc1-c1ncccc1COc1cccc(O)c1C=O [voxelotor, 2-hydroxy-6-((2-(1-isopropyl-1H-pyrazol-5-yl)pyridin-3-yl)methoxy)benzaldehyde], the “increase of AUC with high-fat, high-calorie meal relative to fasted state” value ([1]; plasma) is reported as 42%, the “increase of Cmax with high-fat, high-calorie meal relative to fasted state” value ([1]; plasma) is reported as 95% and the “increase of AUC with high-fat, high-calorie meal relative to fasted state” value ([1]; whole blood) is reported as 42%. The “increase of Cmax with high-fat, high-calorie meal relative to fasted state” value ([1]; whole blood) was 45%, the “effect on digoxin (a P-gp substrate)” value [2] was “did not alter digoxin to a clinically relevant extent” and the QT interval prolongation [3] was “does not prolong QT interval to any clinically relevant extent”. It also gave a half-life ([4]; in vivo, plasma, mild hepatic impairment, 1500 mg single oral dose) of 71.4 h, an AUC(0-inf) ([4]; plasma, oral, 600 mg, plasma, severe hepatic impairment (Test), 600 mg, adjusted for dose to 1500 mg, read-out: AUCinf, Geometric LS Mean) of 394 µg·h/mL and an AUC(0-t) ([4]; plasma, oral, 600 mg, plasma, severe hepatic impairment (Test), 600 mg, adjusted for dose to 1500 mg, read-out: AUCt, Geometric LS Mean) of 388 µg·h/mL. For the same compound, the Cmax ([4]; plasma, oral, 600 mg, plasma, severe hepatic impairment (Test), 600 mg, adjusted for dose to 1500 mg, read-out: Cmax, Geometric LS Mean) was 2900 ng/mL, the AUC(0-inf) ([4]; plasma, oral, 1500 mg, plasma, mild hepatic impairment (Test), 1500 mg, read-out: AUCinf, Geometric LS Mean) was 223 µg·h/mL and the AUC(0-t) ([4]; plasma, oral, 1500 mg, plasma, mild hepatic impairment (Test), 1500 mg, read-out: AUCt, Geometric LS Mean) was 221 µg·h/mL. The Cmax ([4]; plasma, oral, 1500 mg, plasma, mild hepatic impairment (Test), 1500 mg, read-out: Cmax, Geometric LS Mean) was 2360 ng/mL, the AUC(0-inf) ([4]; plasma, oral, 1500 mg, plasma, moderate hepatic impairment (Test), 1500 mg, read-out: AUCinf, Geometric LS Mean) was 240 µg·h/mL and the AUC(0-t) ([4]; plasma, oral, 1500 mg, plasma, moderate hepatic impairment (Test), 1500 mg, read-out: AUCt, Geometric LS Mean) was 245 µg·h/mL. It also gave a Cmax ([4]; plasma, oral, 1500 mg, plasma, moderate hepatic impairment (Test), 1500 mg, read-out: Cmax, Geometric LS Mean) of 3030 ng/mL, an AUC(0-inf) ([4]; plasma, oral, 1500 mg, plasma, normal hepatic function (Reference), 1500 mg, read-out: AUCinf, Geometric LS Mean) of 204 µg·h/mL and an AUC(0-t) ([4]; plasma, oral, 1500 mg, plasma, normal hepatic function (Reference), 1500 mg, read-out: AUCt, Geometric LS Mean) of 203 µg·h/mL. The Cmax ([4]; plasma, oral, 1500 mg, plasma, normal hepatic function (Reference), 1500 mg, read-out: Cmax, Geometric LS Mean) was 2010 ng/mL, the AUC(0-t) ([4]; plasma, po, 600 mg, plasma, severe hepatic impairment, 600 mg single oral dose, adjusted for dose to 1500 mg, read-out: AUC0-96, GM (converted)) was 177 µg·h/mL and the AUC(0-inf) ([4]; plasma, po, 600 mg, plasma, severe hepatic impairment, 600 mg single oral dose, adjusted for dose to 1500 mg, read-out: AUCinf, GM (converted)) was 393 µg·h/mL. The AUC(0-t) ([4]; plasma, po, 600 mg, plasma, severe hepatic impairment, 600 mg single oral dose, adjusted for dose to 1500 mg, read-out: AUCt, GM (converted)) was 386 µg·h/mL, the Cmax ([4]; plasma, po, 600 mg, plasma, severe hepatic impairment, 600 mg single oral dose, adjusted for dose to 1500 mg, read-out: Cmax, GM (converted)) was 2960 ng/mL and the Vd/F [4, 5] was 592 L. It also gave a half-life [4, 5] of 109 h, a Tmax [4, 5] of 4 h and an AUC(0-t) ([4]; plasma, po, 1500 mg, plasma, mild hepatic impairment, 1500 mg single oral dose, read-out: AUC0-96, GM (converted)) of 143 µg·h/mL. It also gave an AUC(0-inf) ([4]; plasma, po, 1500 mg, plasma, mild hepatic impairment, 1500 mg single oral dose, read-out: AUCinf, GM (converted)) of 224 µg·h/mL, an AUC(0-t) ([4]; plasma, po, 1500 mg, plasma, mild hepatic impairment, 1500 mg single oral dose, read-out: AUCt, GM (converted)) of 223 µg·h/mL and a Cmax ([4]; plasma, po, 1500 mg, plasma, mild hepatic impairment, 1500 mg single oral dose, read-out: Cmax, GM (converted)) of 2390 ng/mL. The Vd/F [4, 6] was 674 L, the Tmax [4, 6] was 4 h and the AUC(0-t) ([4]; plasma, po, 1500 mg, plasma, moderate hepatic impairment, 1500 mg single oral dose, read-out: AUC0-96, GM (converted)) was 146 µg·h/mL. For the same compound, the AUC(0-inf) ([4]; plasma, po, 1500 mg, plasma, moderate hepatic impairment, 1500 mg single oral dose, read-out: AUCinf, GM (converted)) was 244 µg·h/mL, the AUC(0-t) ([4]; plasma, po, 1500 mg, plasma, moderate hepatic impairment, 1500 mg single oral dose, read-out: AUCt, GM (converted)) was 252 µg·h/mL and the Cmax ([4]; plasma, po, 1500 mg, plasma, moderate hepatic impairment, 1500 mg single oral dose, read-out: Cmax, GM (converted)) was 2910 ng/mL. It also gave a Vd/F [4, 7] of 789 L, a half-life [4, 7] of 90 h and a Tmax [4, 7] of 5 h. It also gave an AUC(0-t) ([4]; plasma, po, 1500 mg, plasma, normal hepatic function, 1500 mg single oral dose, read-out: AUC0-96, GM (converted)) of 120 µg·h/mL, an AUC(0-inf) ([4]; plasma, po, 1500 mg, plasma, normal hepatic function, 1500 mg single oral dose, read-out: AUCinf, GM (converted)) of 200 µg·h/mL and an AUC(0-t) ([4]; plasma, po, 1500 mg, plasma, normal hepatic function, 1500 mg single oral dose, read-out: AUCt, GM (converted)) of 199 µg·h/mL. The Cmax ([4]; plasma, po, 1500 mg, plasma, normal hepatic function, 1500 mg single oral dose, read-out: Cmax, GM (converted)) was 2010 ng/mL, the Vd/F [4, 8] was 865 L and the half-life [4, 8] was 80.8 h. The Tmax [4, 8] was 4 h, the AUC(0-inf) ([4]; whole blood, oral, 600 mg, whole blood, severe hepatic impairment (Test), 600 mg, adjusted for dose to 1500 mg, read-out: AUCinf, Geometric LS Mean) was 13600 µg·h/mL and the AUC(0-t) ([4]; whole blood, oral, 600 mg, whole blood, severe hepatic impairment (Test), 600 mg, adjusted for dose to 1500 mg, read-out: AUCt, Geometric LS Mean) was 13300 µg·h/mL. The Cmax ([4]; whole blood, oral, 600 mg, whole blood, severe hepatic impairment (Test), 600 mg, adjusted for dose to 1500 mg, read-out: Cmax, Geometric LS Mean) was 85400 ng/mL, the AUC(0-inf) ([4]; whole blood, oral, 1500 mg, whole blood, mild hepatic impairment (Test), 1500 mg, read-out: AUCinf, Geometric LS Mean) was 8160 µg·h/mL and the AUC(0-t) ([4]; whole blood, oral, 1500 mg, whole blood, mild hepatic impairment (Test), 1500 mg, read-out: AUCt, Geometric LS Mean) was 8120 µg·h/mL. The Cmax ([4]; whole blood, oral, 1500 mg, whole blood, mild hepatic impairment (Test), 1500 mg, read-out: Cmax, Geometric LS Mean) was 72900 ng/mL, the AUC(0-inf) ([4]; whole blood, oral, 1500 mg, whole blood, moderate hepatic impairment (Test), 1500 mg, read-out: AUCinf, Geometric LS Mean) was 8230 µg·h/mL and the AUC(0-t) ([4]; whole blood, oral, 1500 mg, whole blood, moderate hepatic impairment (Test), 1500 mg, read-out: AUCt, Geometric LS Mean) was 8190 µg·h/mL. The Cmax ([4]; whole blood, oral, 1500 mg, whole blood, moderate hepatic impairment (Test), 1500 mg, read-out: Cmax, Geometric LS Mean) was 64900 ng/mL, the AUC(0-inf) ([4]; whole blood, oral, 1500 mg, whole blood, normal hepatic function (Reference), 1500 mg, read-out: AUCinf, Geometric LS Mean) was 7150 µg·h/mL and the AUC(0-t) ([4]; whole blood, oral, 1500 mg, whole blood, normal hepatic function (Reference), 1500 mg, read-out: AUCt, Geometric LS Mean) was 7130 µg·h/mL. The Cmax ([4]; whole blood, oral, 1500 mg, whole blood, normal hepatic function (Reference), 1500 mg, read-out: Cmax, Geometric LS Mean) was 61400 ng/mL, the AUC(0-t) ([4]; whole blood, po, 600 mg, whole blood, severe hepatic impairment, 600 mg single oral dose, adjusted for dose to 1500 mg, read-out: AUC0-96, GM (converted)) was 6050 µg·h/mL and the AUC(0-inf) ([4]; whole blood, po, 600 mg, whole blood, severe hepatic impairment, 600 mg single oral dose, adjusted for dose to 1500 mg, read-out: AUCinf, GM (converted)) was 13600 µg·h/mL.
